From patent US20260365656A1, “PYRAZOLE DERIVATIVE, AND PHARMACEUTICALLY ACCEPTABLE SALT, STEREOISOMER, PHARMACEUTICAL COMPOSITION AND USE THEREOF” (STARG (WUHAN) PHARMACEUTICAL TECHNOLOGY CO., LTD, priority 2023, published 2026)
Structures can show the parent of a compound that is named as a salt. Values belong to the compound of their own block, whether it stands above or below them.

Experiments:
CDK1/cyclin B1 = target: T1, CDK1/cyclin B1 (Homo sapiens, UniProt P06493); test: In Vitro CDK1/Cyclin B1 Enzyme Activity Assay (TR-FRET); assay type: biochemical; settings: in words
T1 construct: purchased Carna Biosciences
T1 sequence (P06493 whole entry): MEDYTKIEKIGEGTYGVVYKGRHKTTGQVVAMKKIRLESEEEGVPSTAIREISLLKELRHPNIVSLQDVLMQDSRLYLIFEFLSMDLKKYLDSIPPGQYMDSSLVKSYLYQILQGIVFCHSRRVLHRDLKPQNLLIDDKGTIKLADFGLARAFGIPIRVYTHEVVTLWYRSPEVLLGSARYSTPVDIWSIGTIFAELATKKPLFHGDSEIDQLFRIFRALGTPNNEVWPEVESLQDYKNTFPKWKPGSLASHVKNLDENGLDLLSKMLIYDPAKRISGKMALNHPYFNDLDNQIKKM
T1 sequence (P14635 whole entry partner): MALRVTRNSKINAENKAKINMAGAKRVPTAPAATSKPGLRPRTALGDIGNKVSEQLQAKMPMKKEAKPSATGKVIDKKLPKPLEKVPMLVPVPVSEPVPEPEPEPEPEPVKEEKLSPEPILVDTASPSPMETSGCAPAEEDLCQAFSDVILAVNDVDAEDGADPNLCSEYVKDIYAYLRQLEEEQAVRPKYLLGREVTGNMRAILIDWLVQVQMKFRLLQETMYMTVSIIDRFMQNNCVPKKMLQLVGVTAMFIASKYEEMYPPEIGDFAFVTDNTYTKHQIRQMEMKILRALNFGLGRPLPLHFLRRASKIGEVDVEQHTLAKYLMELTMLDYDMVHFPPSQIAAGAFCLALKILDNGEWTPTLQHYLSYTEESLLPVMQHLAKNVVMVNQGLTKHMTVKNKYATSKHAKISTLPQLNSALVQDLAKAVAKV
Method: Experimental Example 2: In Vitro CDK1/Cyclin B1 Enzyme Activity Assay
CDK1/cyclin B1 was purchased from Carna Biosciences. Ulight-4E-BP1 peptide, Eu-anti-phospho-tyrosine antibody, and 1× detection buffer were purchased from PerkinElmer. High-purity ATP was purchased from Promega. EDTA was purchased from Sigma. Nivo multimode plate reader (PerkinElmer) was used.
Preparation of Kinase Buffer Solution: The kinase buffer solution consisted 50 mM HEPES, 1 mM EDTA, 10 mM MgCl2, and 0.01% Brij-35, with pH of 7.4. 2.38 g HEPES, 58 mg EDTA, 406 mg MgCl2, and 20 mg Brij-35 were added to 200 mL buffer, and the pH was adjusted to 7.4.
The stop solution was prepared by mixing 100 μL of 1 M EDTA stock solution with 0.625 μL of 1× detection buffer solution and 1725 μL of distilled water.
The enzyme, Ulight-4E-BP1 peptide, ATP, and the inhibitor were diluted using the kinase buffer solution.
The Eu-anti-phospho-tyrosine antibody was diluted to a concentration of 8 nM/L using the detection buffer solution.
The test compound was serially diluted 5-fold using a multichannel pipette to the 8th concentration, i.e., from 4 μM to 0.0512 nM. The final concentration of DMSO was 4%, and the experiment was set up with duplicate wells. 2.5 μL of each gradient concentration of the inhibitor, 5 μL of CDK1/cyclin B1 enzyme (0.5 ng), and 2.5 μL of a mixture of substrate and ATP (4 mM ATP, 200 nM Ulight-4E-BP1 peptide) were added to a microplate, resulting in a final concentration gradient of the compound from 1 μM to 0.0128 nM, with final ATP and substrate concentrations of 1 mM and 50 nM, respectively. The reaction system was incubated at 25 °C for 60 minutes. After the reaction, 5 μL of the stop solution was added to each well, and further reacted at 25 °C for 5 minutes to terminate the reaction. Then 5 μL of Eu-anti-phospho-tyrosine antibody dilution was added to each well, and the mixture was incubated at 25 °C for 60 minutes. Data were collected using the PerkinElmer Nivo multimode plate reader in TR-FRET mode (excitation wavelength: 320 nm; emission wavelengths: 615 nm and 665 nm).
The raw data were converted to inhibition rates using the equation (Sample−Min)/(Max−Min)×100%. The IC50 value was obtained by fitting the data to a four-parameter curve (using log(inhibitor) vs. response—Variable slope model in GraphPad Prism). Table 1 provides the enzyme inhibitory activity of the compounds of the present application against CDK1/cyclin B1.

[1] = Pharmacokinetic Study of Test Compounds Administered Orally and Intravenously in Mice; assay type: in vivo, mouse (ICR, male); settings: ICR mice
Excerpt: Experimental Example 5: Pharmacokinetic Study of Test Compounds Administered Orally and Intravenously in Mice
This study used ICR male mice as test animals. The plasma concentrations of the test compounds and the reference compound in mice were quantitatively determined at different time points using the LC-MS/MS method following intravenous injection or oral administration to evaluate the pharmacokinetic characteristics of the test compounds in mice.
ICR mice (male, 20-30 g, 6-8 weeks old, Beijing Charles River).
A clear solution of the test compound was administered to ICR mice (fasted overnight or fed) via tail vein injection or oral gavage. For intravenous injection, blood samples (50 μL) were collected via cheek puncture at 0 h (pre-dose) and at 0.083, 0.25, 0.5, 1, 2, 4, 6, 8, and 24 h post-dose into anticoagulant tubes containing sodium heparin. The mixtures were thoroughly vortexed at 4 °C and centrifuged at 6000 rpm for 3 minutes. For oral gavage, blood samples were collected via cheek puncture at 0 h (pre-dose) and at 0.083, 0.25, 1, 2, 4, 6, 8, and 24 h post-dose into anticoagulant tubes containing sodium heparin. The mixtures were vortexed thoroughly, and centrifuged at 6000 rpm for 3 minutes. Plasma drug concentrations were determined using the LC-MS/MS method. Pharmacokinetic parameters were calculated using Phoenix WinNonlin 8.2.0 pharmacokinetic software with a non-compartmental model and linear-logarithmic trapezoidal rule.

Compound: CNOCc1nn2ccnc(Nc3cc([C@H]4CC[C@@H](OC(=O)NC(C)C)C4)[nH]n3)c2c1F [Hydrochloride salt of Compound 7]
selectivity for CDK2 over CDK1 compared to PF-07104091 (CDK1/cyclin B1): superior selectivity compared to PF-07104091

Apparent volume of distribution Vdss ([1]; intravenous, 5 mg/Kg): 11.8 L/kg
Area under plasma concentration-time curve AUC0-last ([1]; intravenous, 5 mg/Kg): 1645 ng·h/mL
Clearance CL ([1]; intravenous, 5 mg/Kg): 50.3 mL/min/kg
Half-life T1/2 ([1]; intravenous, 5 mg/Kg): 2.68 h
Bioavailability F ([1]; oral 30 mg/Kg vs intravenous 5 mg/Kg): 76.2%
Area under plasma concentration-time curve AUC0-last ([1]; oral, 30 mg/Kg): 7524 ng·h/mL
Peak concentration Cmax ([1]; oral, 30 mg/Kg): 6317 ng/mL
Time to peak Tmax ([1]; oral, 30 mg/Kg): 0.25 h
Compound: COCc1cc(C(=O)Nc2cc([C@H]3CC[C@@H](OC(=O)NC(C)C)C3)[nH]n2)n(C)n1 [PF-07104091]

Compound: CNOCc1nn2ccnc(Nc3cc([C@H]4CC[C@@H](OC(=O)NC(C)C)C4)[nH]n3)c2c1C [Hydrochloride salt of compound 3]
selectivity for CDK2 over CDK1 compared to PF-07104091 (CDK1/cyclin B1): superior selectivity compared to PF-07104091

Compound: CONCc1nn2ccnc(Nc3cc([C@H]4CC[C@@H](OC(=O)NC(C)C)C4)[nH]n3)c2c1F [Compound 5]
selectivity for CDK2 over CDK1 compared to PF-07104091 (CDK1/cyclin B1): superior selectivity compared to PF-07104091

Compound: CONCc1nn2ccnc(Nc3cc([C@H]4CC[C@@H](OC(=O)NC(C)C)C4)[nH]n3)c2c1C [Formate salt of compound 1]
selectivity for CDK2 over CDK1 compared to PF-07104091 (CDK1/cyclin B1): superior selectivity compared to PF-07104091

Compound: CON(C)Cc1nn2ccnc(Nc3cc([C@H]4CC[C@@H](OC(=O)NC(C)C)C4)[nH]n3)c2c1F [Compound 6]
selectivity for CDK2 over CDK1 compared to PF-07104091 (CDK1/cyclin B1): superior selectivity compared to PF-07104091

Compound: CON(C)Cc1nn2ccnc(Nc3cc([C@H]4CC[C@@H](OC(=O)NC(C)C)C4)[nH]n3)c2c1C [Formate salt of compound 2]
selectivity for CDK2 over CDK1 compared to PF-07104091 (CDK1/cyclin B1): superior selectivity compared to PF-07104091
